The values below come from patent EP1464341B1, “Ubiquinone-containing water-soluble formulation for ophthalmic use” (Visufarma S.p.A, priority 2003, dated 2004).

For series [1] the following is noted: cited from earlier work.
Series [2] is described as follows: Pharmacokinetic incorporation of the hydrophilic collyrium in rabbit cornea, retina and plasma (CoQ10 concentration). Type of series: in vivo. The following applies: for RETINA Q10-treated, Average / RETINA Q10-treated: retina of treated eye. The method, then:
Assessment of the pharmacokinetic activity of incorporation of the hydrophilic collyrium in rabbit cornea, retina and plasma.
a) The hydrophilic collyrium was assayed on a first lot of three rabbits by instilling Coenzyme Q10 in the right eye and an equivalent excipient free from Q10 and vitamin E TPQS in the contralateral (basal) eye. At + 15 min from the collyrium instillation, CoQ10 concentration in the treated eye and in the other (basal) eye was analysed. The analysis was performed on the retina, the cornea and the plasma of the two eyes.
b) .A second lot of six rabbits was subjected to an analogous assay in which the waiting time was prolonged up to 30 min.

Series [3] deals with superoxide anion generated by human PMNs (polymorphonucleates). The following applies: human PMNs suitably stimulated; Ferrocytochrome C method.
[4] abbreviates: treated minus basal, 15 min, average of 3 rabbits.
The mark [5] stands for this setting: treated vs basal, 15 min, average of 3 rabbits.

Values joined by “and” are separate entries in the source; they are usually repeats but may differ in a detail not shown here. Equal values may be shown once.

`COC1=C(OC)C(=O)C(C/C=C(\C)CC/C=C(\C)CC/C=C(\C)CC/C=C(\C)CC/C=C(\C)CC/C=C(\C)CC/C=C(\C)CC/C=C(\C)CC/C=C(\C)CCC=C(C)C)=C(C)C1=O` [Formulation Q10, Ubiquinone Q10]: in series [1], the solubility in water entry is “totally insoluble in water”. Also, in series [2] (at both times considered (15 min and 30 min)), the “incorporation in the cornea” value was “scarce”. In addition, the “CORNEA Q10-treated, Average” value in series [2] (cornea of treated eye, 15 min, average of 3 rabbits) is listed as 1004 pmoles/g. In series [2] (cornea of treated eye, 15 min, individual rabbits N. 15-17), the “CORNEA Q10-treated” value was 887 pmoles/g and 955 pmoles/g and 1170 pmoles/g. In addition, the “CORNEA Difference, Average” value in series [2] (cornea, treated minus basal, 15 min, average of 3 rabbits) was found to be 74 pmol/g. For the same compound, the “CORNEA Difference” value in series [2] (cornea, treated minus basal, 15 min, individual rabbits) was -34 pmol/g and 377 pmol/g and -150 pmol/g. Moreover, the “CORNEA %Increase, Average” value in series [2] (cornea, treated vs basal, 15 min, average of 3 rabbits) was 7%; in series [2] (cornea, treated vs basal, 30 min, average of 6 rabbits), 4%. Moreover, the “CORNEA %Increase” value in series [2] (cornea, treated vs basal, 15 min, individual rabbits) was -3% and 65% and -11%; in series [2] (cornea, treated vs basal, 30 min, individual rabbits), -17% and 16% (2×) and 24% and -7% and -16%. Further, the “PLASMA Q10-treated, Average” value in series [2] (15 min, average of 3 rabbits) is 74 pmoles/g; in series [2] (30 min, average of 6 rabbits) it was 83 pmoles/g. The “PLASMA Q10-treated” value was 62 pmoles/g and 83 pmoles/g and 78 pmoles/g in series [2] (15 min, individual rabbits N. 15-17); 79 pmoles/g and 105 pmoles/g and 106 pmoles/g and 53 pmoles/g and 81 pmoles/g and 73 pmoles/g in series [2] (30 min, individual rabbits N. 18-23). The “PLASMA Difference, Average” value in series [2] (setting [4]) was 10 pmol/g; in series [2] (treated minus basal, 30 min, average of 6 rabbits) it was 13 pmol/g. The “PLASMA Difference” value in series [2] (treated minus basal, 15 min, individual rabbits) was 8 pmol/g and 6 pmol/g and 17 pmol/g; in series [2] (treated minus basal, 30 min, individual rabbits) it was 14 pmoles/g (2×) and 7 pmoles/g and 23 pmoles/g and 10 pmoles/g and 8 pmoles/g. Besides, the “PLASMA %Increase, Average” value in series [2] (setting [5]) worked out at 16%; in series [2] (treated vs basal, 30 min, average of 6 rabbits), 18%. For the same compound, the “PLASMA %Increase” value was 15% and 8% and 28% in series [2] (treated vs basal, 15 min, individual rabbits); 21% (2×) and 7% and 28% and 23% and 12% in series [2] (treated vs basal, 30 min, individual rabbits). In addition, the “RETINA Q10-treated, Average” value in series [2] (15 min, average of 3 rabbits) stood at 754 pmoles/g; in series [2] (second lot (30 min; head prints 15 min), average of 6 rabbits) it was 1084.3 pmoles/g. Further, the “RETINA Q10-treated” value in series [2] (15 min after instillation, individual rabbits N. 15-17) was 787 pmoles/g and 632 pmoles/g and 843 pmoles/g; in series [2] (second lot (waiting time 30 min; head prints 15 min), individual rabbits N. 18-23), 1006 pmoles/g and 1394 pmoles/g and 1037 pmoles/g and 725 pmoles/g and 975 pmoles/g and 1369 pmoles/g. In addition, the “RETINA Difference” value is -82 pmol/g and 14 pmol/g and 83 pmol/g in series [2] (treated minus basal (contralateral) eye, 15 min, individual rabbits); 177 pmol/g and 57 pmol/g and 106 pmol/g and 74 pmol/g and 211 pmol/g and 208 pmol/g in series [2] (treated minus basal, second lot (30 min; head prints 15 min), individual rabbits). For the same compound, the “RETINA Difference, Average” value in series [2] (setting [4]) was 5 pmol/g; in series [2] (treated minus basal, second lot (30 min; head prints 15 min), average of 6 rabbits), 138.8 pmol/g. Moreover, the “RETINA %Increase, Average” value was 15% in series [2] (treated vs basal (contralateral eye), second lot (30 min; head prints 15 min), average of 6 rabbits) and 1% in series [2] (setting [5]). The “RETINA % Increase” value was -9% and 2% and 11% in series [2] (treated vs basal eye, 15 min, individual rabbits); 21% and 4% and 11% (2×) and 28% and 18% in series [2] (treated vs basal, second lot (30 min; head prints 15 min), individual rabbits).
For the compound “d-Alpha-tocopheryl polyethylene glycol 1000-succinate [vitamin E TPGS]”, the “scavenging action with regards to the superoxide anion” value in series [3] is “scavenging action”.
